In PubChem BioAssay (NCI):
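96-well plates; 48 h exposure; 5 concentrations. Endpoints by linear interpolation between flanking doses. Not reached: highest tested concentration assigned. TGI denotes the concentration required for complete inhibition of growth.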

Legend:
Assay in all cases: DTP human tumour cell line panel, 48 h
786-0 renal = tested on: 786-0 renal
A498 renal = tested on: A498 renal
A549 NSCLC = tested on: A549 NSCLC
ACHN renal = tested on: ACHN renal
BT-549 breast = tested on: BT-549 breast
CAKI-1 renal = tested on: CAKI-1 renal
COLO 205 colon = tested on: COLO 205 colon
DU-145 prostate = tested on: DU-145 prostate
EKVX NSCLC = tested on: EKVX NSCLC
HCC-2998 colon = tested on: HCC-2998 colon
HCT-116 colon = tested on: HCT-116 colon
HCT-15 colon = tested on: HCT-15 colon
HL-60(TB) leukemia = tested on: HL-60(TB) leukemia
HOP-62 NSCLC = tested on: HOP-62 NSCLC
HOP-92 NSCLC = tested on: HOP-92 NSCLC
HS 578T breast = tested on: HS 578T breast
HT29 colon = tested on: HT29 colon
IGROV1 ovarian = tested on: IGROV1 ovarian
K-562 leukemia = tested on: K-562 leukemia
KM12 colon = tested on: KM12 colon
LOX IMVI melanoma = tested on: LOX IMVI melanoma
M14 melanoma = tested on: M14 melanoma
MALME-3M melanoma = tested on: MALME-3M melanoma
MCF7 breast = tested on: MCF7 breast
MDA-MB-231 breast = tested on: MDA-MB-231 breast
MDA-MB-435 = tested on: MDA-MB-435
MDA-N = tested on: MDA-N
NCI-H226 lung = tested on: NCI-H226 lung
NCI-H23 lung = tested on: NCI-H23 lung
NCI-H460 lung = tested on: NCI-H460 lung
NCI-H522 lung = tested on: NCI-H522 lung
NCI/ADR-RES ovarian = tested on: NCI/ADR-RES ovarian
OVCAR-3 ovarian = tested on: OVCAR-3 ovarian
OVCAR-4 ovarian = tested on: OVCAR-4 ovarian
OVCAR-5 ovarian = tested on: OVCAR-5 ovarian
OVCAR-8 ovarian = tested on: OVCAR-8 ovarian
PC-3 prostate = tested on: PC-3 prostate
RPMI-8226 leukemia = tested on: RPMI-8226 leukemia
RXF 393 renal = tested on: RXF 393 renal
SF-268 CNS = tested on: SF-268 CNS
SF-295 CNS = tested on: SF-295 CNS
SF-539 CNS = tested on: SF-539 CNS
SK-MEL-2 melanoma = tested on: SK-MEL-2 melanoma
SK-MEL-28 melanoma = tested on: SK-MEL-28 melanoma
SK-MEL-5 melanoma = tested on: SK-MEL-5 melanoma
SK-OV-3 ovarian = tested on: SK-OV-3 ovarian
SN12C renal = tested on: SN12C renal
SNB-19 CNS = tested on: SNB-19 CNS
SNB-75 CNS = tested on: SNB-75 CNS
SR leukemia = tested on: SR leukemia
SW-620 colon = tested on: SW-620 colon
T-47D breast = tested on: T-47D breast
TK-10 renal = tested on: TK-10 renal
U251 CNS = tested on: U251 CNS
UACC-257 melanoma = tested on: UACC-257 melanoma
UACC-62 melanoma = tested on: UACC-62 melanoma
UO-31 renal = tested on: UO-31 renal
CCRF-CEM leukemia = tested on: CCRF-CEM leukemia
MOLT-4 leukemia = tested on: MOLT-4 leukemia

Compound `CCOC(=O)C(C(N)=O)c1nc2cc([N+](=O)[O-])ccc2nc1/C=C(\O)c1ccccc1` (centres undefined) has a TGI (786-0 renal) of 25.5 µM, a TGI (A498 renal) of 33.2 µM and a TGI (A549 NSCLC) of 32.8 µM. For the same compound, the TGI (ACHN renal) was 30.7 µM, the TGI (BT-549 breast) was 49.9 µM and the TGI (CAKI-1 renal) was 52 µM. It also gave a TGI (COLO 205 colon) of 36.5 µM, a TGI (DU-145 prostate) of 31 µM and a TGI (EKVX NSCLC) of 76.5 µM. It also gave a TGI (HCC-2998 colon) of 21.7 µM, a TGI (HCT-116 colon) of 32.7 µM and a TGI (HCT-15 colon) of 28.4 µM. It also gave a TGI (HL-60(TB) leukemia) of 26 µM, a TGI (HOP-62 NSCLC) of 22.9 µM and a TGI (HOP-92 NSCLC) of 39.1 µM. The TGI (HS 578T breast) was 51.2 µM, the TGI (HT29 colon) was 45.3 µM and the TGI (IGROV1 ovarian) was 24.8 µM. The TGI (K-562 leukemia) was 13.9 µM, the TGI (KM12 colon) was 26.5 µM and the TGI (LOX IMVI melanoma) was 28.7 µM. It also gave a TGI (M14 melanoma) of 34.3 µM, a TGI (MALME-3M melanoma) of 36.7 µM and a TGI (MCF7 breast) of 24.8 µM. For the same compound, the TGI (MDA-MB-231 breast) was 27 µM, the TGI (MDA-MB-435) was 31.3 µM and the TGI (MDA-N) was 40.4 µM. The TGI (NCI-H226 lung) was > 100 µM, the TGI (NCI-H23 lung) was 23.7 µM and the TGI (NCI-H460 lung) was 26.1 µM. The TGI (NCI-H522 lung) was 29.3 µM, the TGI (NCI/ADR-RES ovarian) was 34.8 µM and the TGI (OVCAR-3 ovarian) was 22 µM. The TGI (OVCAR-4 ovarian) was 34.7 µM, the TGI (OVCAR-5 ovarian) was 83.3 µM and the TGI (OVCAR-8 ovarian) was 30 µM. For the same compound, the TGI (PC-3 prostate) was 30.2 µM, the TGI (RPMI-8226 leukemia) was 27.1 µM and the TGI (RXF 393 renal) was 39.3 µM. It also gave a TGI (SF-268 CNS) of 32.1 µM, a TGI (SF-295 CNS) of 42.5 µM and a TGI (SF-539 CNS) of 30.2 µM. It also gave a TGI (SK-MEL-2 melanoma) of 30.4 µM, a TGI (SK-MEL-28 melanoma) of 86.9 µM and a TGI (SK-MEL-5 melanoma) of 30.4 µM. For the same compound, the TGI (SK-OV-3 ovarian) was 29 µM, the TGI (SN12C renal) was 64.4 µM and the TGI (SNB-19 CNS) was 44.5 µM. It also gave a TGI (SNB-75 CNS) of 43.1 µM, a TGI (SR leukemia) of 16.5 µM and a TGI (SW-620 colon) of 33.9 µM. For the same compound, the TGI (T-47D breast) was 71.8 µM, the TGI (TK-10 renal) was 22.9 µM and the TGI (U251 CNS) was 23.4 µM. The TGI (UACC-257 melanoma) was 40.4 µM, the TGI (UACC-62 melanoma) was 34.9 µM and the TGI (UO-31 renal) was 36.6 µM.
In the case of `CC(=O)OCCOCn1cc(C=O)c2ccccc21`, the TGI (786-0 renal) is reported as > 100 µM, the TGI (A498 renal) is reported as 3.89 µM and the TGI (A549 NSCLC) is reported as > 100 µM. The TGI (ACHN renal) was > 100 µM, the TGI (BT-549 breast) was > 100 µM and the TGI (CAKI-1 renal) was > 100 µM. For the same compound, the TGI (CCRF-CEM leukemia) was > 100 µM, the TGI (COLO 205 colon) was > 100 µM and the TGI (DU-145 prostate) was > 100 µM. The TGI (EKVX NSCLC) was > 100 µM, the TGI (HCC-2998 colon) was > 100 µM and the TGI (HCT-116 colon) was > 100 µM. The TGI (HCT-15 colon) was > 100 µM, the TGI (HL-60(TB) leukemia) was > 100 µM and the TGI (HOP-62 NSCLC) was > 100 µM. For the same compound, the TGI (HOP-92 NSCLC) was > 100 µM, the TGI (HS 578T breast) was > 100 µM and the TGI (HT29 colon) was > 100 µM. For the same compound, the TGI (IGROV1 ovarian) was > 100 µM, the TGI (K-562 leukemia) was > 100 µM and the TGI (KM12 colon) was > 100 µM. The TGI (LOX IMVI melanoma) was > 100 µM, the TGI (M14 melanoma) was > 100 µM and the TGI (MALME-3M melanoma) was > 100 µM. The TGI (MCF7 breast) was > 100 µM, the TGI (MDA-MB-231 breast) was > 100 µM and the TGI (MDA-MB-435) was > 100 µM. The TGI (MDA-N) was > 100 µM, the TGI (MOLT-4 leukemia) was > 100 µM and the TGI (NCI-H23 lung) was > 100 µM. For the same compound, the TGI (NCI-H460 lung) was > 100 µM, the TGI (NCI-H522 lung) was > 100 µM and the TGI (NCI/ADR-RES ovarian) was > 100 µM. For the same compound, the TGI (OVCAR-3 ovarian) was > 100 µM, the TGI (OVCAR-5 ovarian) was > 100 µM and the TGI (OVCAR-8 ovarian) was > 100 µM. The TGI (PC-3 prostate) was > 100 µM, the TGI (RPMI-8226 leukemia) was > 100 µM and the TGI (RXF 393 renal) was > 100 µM. For the same compound, the TGI (SF-268 CNS) was > 100 µM, the TGI (SF-295 CNS) was > 100 µM and the TGI (SF-539 CNS) was > 100 µM. The TGI (SK-MEL-2 melanoma) was > 100 µM, the TGI (SK-MEL-28 melanoma) was > 100 µM and the TGI (SK-MEL-5 melanoma) was > 100 µM. The TGI (SK-OV-3 ovarian) was > 100 µM, the TGI (SN12C renal) was > 100 µM and the TGI (SNB-19 CNS) was > 100 µM. For the same compound, the TGI (SNB-75 CNS) was > 100 µM, the TGI (SR leukemia) was > 100 µM and the TGI (SW-620 colon) was > 100 µM. The TGI (T-47D breast) was > 100 µM, the TGI (TK-10 renal) was > 100 µM and the TGI (U251 CNS) was > 100 µM. The TGI (UACC-257 melanoma) was > 100 µM, the TGI (UACC-62 melanoma) was > 100 µM and the TGI (UO-31 renal) was > 100 µM.
